Measurements: paper PMC12136037, “Type II kinase inhibitors that target Parkinson’s disease–associated LRRK2” (Science Advances, 2025)
Where “and” joins values, the source holds several entries; their conditions need not be identical. Identical values can stand only once. Like-named read-outs stand apart in the source and are kept apart here.

How the values were obtained:
Assay in all cases: nanoBRET off-target validation
Type in all cases: cell-based
[1] = molecular target: T1, CLK1 (Homo sapiens, UniProt P49759)
T1 construct: host or cells: HEK293T (ATCC CRL-3216)
Procedure: (§1) The assay was performed as described previously ([61]). In brief, full-length kinases as listed in table S6 were obtained as plasmids cloned in frame with terminal NanoLuc-fusion (gift from Promega; table S6). […] Serially diluted inhibitor and corresponding tracer as listed in table S6 at the Tracer KD concentration taken from TracerDB (tracerdb.org) ([62]) were pipetted into white 384-well plates (Greiner, 781207) using an ECHO acoustic dispenser (Labcyte). The corresponding protein-transfected cells were added and reseeded at a density of 2 × 10^5 cells/ml after trypsinization and resuspending in Opti-MEM without phenol red (Life Technologies). The system was allowed to equilibrate for 3 hours at 37°C/5% CO2 before bioluminescence resonance energy transfer (BRET) measurements. To measure BRET, NanoBRET NanoGlo Substrate + extracellular NanoLuc Inhibitor (Promega, N2540) was added as per the manufacturer’s protocol, and filtered luminescence was measured on a PHERAstar plate reader (BMG Labtech) equipped with a luminescence filter pair [450-nm BP filter (donor) and 610-nm LP filter (acceptor)]. […] (For step-by-step protocol, see www.eubopen.org/sites/www.eubopen.org/files/attachments/2021/NanoBRET-IC50_v1_0.pdf.)

[2] = molecular target: T2, DDR2 (Homo sapiens, UniProt Q16832)
T2 construct: host or cells: HEK293T (ATCC CRL-3216)
T2 sequence (Q16832 22-855): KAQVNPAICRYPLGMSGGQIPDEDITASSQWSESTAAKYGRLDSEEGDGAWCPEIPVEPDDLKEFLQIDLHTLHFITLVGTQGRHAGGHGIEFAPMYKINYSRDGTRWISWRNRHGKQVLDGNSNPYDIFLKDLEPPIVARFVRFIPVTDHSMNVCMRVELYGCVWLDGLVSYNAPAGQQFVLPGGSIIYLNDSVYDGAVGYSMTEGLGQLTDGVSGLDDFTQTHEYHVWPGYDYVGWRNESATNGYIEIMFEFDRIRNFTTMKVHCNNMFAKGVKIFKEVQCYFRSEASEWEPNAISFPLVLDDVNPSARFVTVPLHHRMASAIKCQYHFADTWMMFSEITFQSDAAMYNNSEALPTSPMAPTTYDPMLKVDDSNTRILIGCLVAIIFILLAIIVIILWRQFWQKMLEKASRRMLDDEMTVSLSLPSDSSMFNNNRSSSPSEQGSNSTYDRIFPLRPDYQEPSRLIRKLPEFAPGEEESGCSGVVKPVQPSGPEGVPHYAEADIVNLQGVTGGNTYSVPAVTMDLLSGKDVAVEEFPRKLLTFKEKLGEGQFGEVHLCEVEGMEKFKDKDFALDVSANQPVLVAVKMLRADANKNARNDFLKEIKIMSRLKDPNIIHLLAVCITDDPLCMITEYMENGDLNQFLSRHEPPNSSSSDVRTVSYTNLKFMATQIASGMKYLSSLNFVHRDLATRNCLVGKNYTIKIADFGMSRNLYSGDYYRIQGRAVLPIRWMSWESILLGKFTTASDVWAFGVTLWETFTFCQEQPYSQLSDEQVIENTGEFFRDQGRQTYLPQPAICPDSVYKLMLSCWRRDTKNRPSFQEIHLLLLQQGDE
Procedure: as §1

[3] = molecular target: T3, JNK3 (Homo sapiens, UniProt P53779)
T3 construct: host or cells: HEK293T (ATCC CRL-3216)
Procedure: as §1

T1 sequence (P49759 whole entry): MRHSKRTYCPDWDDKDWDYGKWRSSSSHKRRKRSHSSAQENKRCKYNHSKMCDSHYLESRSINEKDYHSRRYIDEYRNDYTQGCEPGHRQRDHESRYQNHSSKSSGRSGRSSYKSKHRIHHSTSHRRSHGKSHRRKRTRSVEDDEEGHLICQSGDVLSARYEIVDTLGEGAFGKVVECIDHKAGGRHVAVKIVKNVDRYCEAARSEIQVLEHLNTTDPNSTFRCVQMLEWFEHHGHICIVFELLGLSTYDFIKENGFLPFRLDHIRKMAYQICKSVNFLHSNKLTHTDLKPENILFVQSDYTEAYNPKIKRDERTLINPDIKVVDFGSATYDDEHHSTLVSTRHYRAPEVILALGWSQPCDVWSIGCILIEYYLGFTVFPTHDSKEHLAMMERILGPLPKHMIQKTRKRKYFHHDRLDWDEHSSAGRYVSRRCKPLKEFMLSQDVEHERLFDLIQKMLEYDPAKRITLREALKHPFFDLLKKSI
T3 sequence (P53779 whole entry): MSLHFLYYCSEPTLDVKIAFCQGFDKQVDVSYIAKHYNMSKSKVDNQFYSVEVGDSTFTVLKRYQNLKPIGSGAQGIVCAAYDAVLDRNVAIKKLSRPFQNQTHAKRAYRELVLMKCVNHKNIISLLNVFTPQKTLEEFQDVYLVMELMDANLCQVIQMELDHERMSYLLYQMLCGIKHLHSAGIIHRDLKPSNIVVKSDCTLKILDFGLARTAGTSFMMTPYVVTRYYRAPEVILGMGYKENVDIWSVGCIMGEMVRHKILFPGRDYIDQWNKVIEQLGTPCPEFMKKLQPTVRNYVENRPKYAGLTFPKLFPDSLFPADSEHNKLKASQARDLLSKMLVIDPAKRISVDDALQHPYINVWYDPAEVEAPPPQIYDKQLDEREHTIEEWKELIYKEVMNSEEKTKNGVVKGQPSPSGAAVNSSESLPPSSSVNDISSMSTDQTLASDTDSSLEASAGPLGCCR

For `CCSc1nc(NC)c2c(-c3cccc(NC(=O)Nc4cc(C(C)(C)C)nn4-c4ccc(C)cc4)c3)c[nH]c2n1` [Compound 32], the EC50 [1] was 6 µM, the “nanoBRET response normalized to 0% (no tracer) and 100% (no inhibitor) control” value ([1]; CLK1, inhibitor 8 nM, two replicates, listed as RN341, 0.008 µM) was 96.3388% and the normalized NanoBRET tracer signal at 0.008 µM ([1]; CLK1, inhibitor 8 nM, two replicates, read-out: nanoBRET response normalized to 0% (no tracer) and 100% (no inhibitor) control) was 99.4%. The “nanoBRET response normalized to 0% (no tracer) and 100% (no inhibitor) control” value ([1]; CLK1, inhibitor 16 nM, two replicates, listed as RN341, 0.016 µM) was 93.1575%, the normalized NanoBRET tracer signal at 0.016 µM ([1]; CLK1, inhibitor 16 nM, two replicates, read-out: nanoBRET response normalized to 0% (no tracer) and 100% (no inhibitor) control) was 93.9% and the “nanoBRET response normalized to 0% (no tracer) and 100% (no inhibitor) control” value ([1]; CLK1, inhibitor 50 nM, two replicates, listed as RN341, 0.05 µM) was 98.6143%. For the same compound, the normalized NanoBRET tracer signal at 0.05 µM ([1]; CLK1, inhibitor 50 nM, two replicates, read-out: nanoBRET response normalized to 0% (no tracer) and 100% (no inhibitor) control) was 97.1%, the “nanoBRET response normalized to 0% (no tracer) and 100% (no inhibitor) control” value ([1]; CLK1, inhibitor 250 nM, two replicates, listed as RN341, […]) was 91.8848% and the normalized NanoBRET tracer signal at […] ([1]; CLK1, inhibitor 250 nM, two replicates, read-out: nanoBRET response normalized to 0% (no tracer) and 100% (no inhibitor) control) was 93.8%. For the same compound, the “nanoBRET response normalized to 0% (no tracer) and 100% (no inhibitor) control” value ([1]; CLK1, inhibitor 500 nM, two replicates, listed as RN341, 0.5 µM) was 89.5722%, the normalized NanoBRET tracer signal at 0.5 µM ([1]; CLK1, inhibitor 500 nM, two replicates, read-out: nanoBRET response normalized to 0% (no tracer) and 100% (no inhibitor) control) was 87.8% and the “nanoBRET response normalized to 0% (no tracer) and 100% (no inhibitor) control” value ([1]; CLK1, inhibitor 2500 nM, two replicates, listed as RN341, […]) was 66.5911%. The normalized NanoBRET tracer signal at […] ([1]; CLK1, inhibitor 2500 nM, two replicates, read-out: nanoBRET response normalized to 0% (no tracer) and 100% (no inhibitor) control) was 70.4%, the “nanoBRET response normalized to 0% (no tracer) and 100% (no inhibitor) control” value ([1]; CLK1, inhibitor 5000 nM, two replicates, listed as RN341, 5 µM) was 68.3349% and the normalized NanoBRET tracer signal at 5 µM ([1]; CLK1, inhibitor 5000 nM, two replicates, read-out: nanoBRET response normalized to 0% (no tracer) and 100% (no inhibitor) control) was 62%. For the same compound, the “nanoBRET response normalized to 0% (no tracer) and 100% (no inhibitor) control” value ([1]; CLK1, inhibitor 25000 nM, two replicates, listed as RN341, 25 µM) was 18.5705%, the normalized NanoBRET tracer signal at 25 µM ([1]; CLK1, inhibitor 25000 nM, two replicates, read-out: nanoBRET response normalized to 0% (no tracer) and 100% (no inhibitor) control) was 17.2% and the EC50 [2] was greater than 20 µM. The remaining tracer BRET signal at 0.008 µM ([2]; DDR2, inhibitor 8 nM, two replicates, read-out: nanoBRET response normalized to 0% (no tracer) and 100% (no inhibitor) control) was 102% and 95.3%, the “nanoBRET response normalized to 0% (no tracer) and 100% (no inhibitor) control” value ([2]; DDR2, inhibitor 16 nM, two replicates, listed as RN341, 0.016 µM) was 102.202% and the remaining tracer BRET signal at 0.016 µM ([2]; DDR2, inhibitor 16 nM, two replicates, read-out: nanoBRET response normalized to 0% (no tracer) and 100% (no inhibitor) control) was 105%. The “nanoBRET response normalized to 0% (no tracer) and 100% (no inhibitor) control” value ([2]; DDR2, inhibitor 50 nM, two replicates, listed as RN341, 0.05 µM) was 98.4821%, the remaining tracer BRET signal at 0.05 µM ([2]; DDR2, inhibitor 50 nM, two replicates, read-out: nanoBRET response normalized to 0% (no tracer) and 100% (no inhibitor) control) was 114% and the “nanoBRET response normalized to 0% (no tracer) and 100% (no inhibitor) control” value ([2]; DDR2, inhibitor 250 nM, two replicates, listed as RN341, […]) was 104.362%. The remaining tracer BRET signal at […] ([2]; DDR2, inhibitor 250 nM, two replicates, read-out: nanoBRET response normalized to 0% (no tracer) and 100% (no inhibitor) control) was 123%, the “nanoBRET response normalized to 0% (no tracer) and 100% (no inhibitor) control” value ([2]; DDR2, inhibitor 500 nM, two replicates, listed as RN341, 0.5 µM) was 117.148% and the remaining tracer BRET signal at 0.5 µM ([2]; DDR2, inhibitor 500 nM, two replicates, read-out: nanoBRET response normalized to 0% (no tracer) and 100% (no inhibitor) control) was 129%. The “nanoBRET response normalized to 0% (no tracer) and 100% (no inhibitor) control” value ([2]; DDR2, inhibitor 2500 nM, two replicates, listed as RN341, […]) was 86.9292%, the remaining tracer BRET signal at […] ([2]; DDR2, inhibitor 2500 nM, two replicates, read-out: nanoBRET response normalized to 0% (no tracer) and 100% (no inhibitor) control) was 103% and the “nanoBRET response normalized to 0% (no tracer) and 100% (no inhibitor) control” value ([2]; DDR2, inhibitor 5000 nM, two replicates, listed as RN341, 5 µM) was 105.865%. The remaining tracer BRET signal at 5 µM ([2]; DDR2, inhibitor 5000 nM, two replicates, read-out: nanoBRET response normalized to 0% (no tracer) and 100% (no inhibitor) control) was 89.9%, the “nanoBRET response normalized to 0% (no tracer) and 100% (no inhibitor) control” value ([2]; DDR2, inhibitor 25000 nM, two replicates, listed as RN341, 25 µM) was 54.8632% and the remaining tracer BRET signal at 25 µM ([2]; DDR2, inhibitor 25000 nM, two replicates, read-out: nanoBRET response normalized to 0% (no tracer) and 100% (no inhibitor) control) was 55.4%. For the same compound, the EC50 [3] was 15 µM, the “nanoBRET response normalized to 0% (no tracer) and 100% (no inhibitor) control” value ([3]; JNK3, inhibitor 8 nM, two replicates, listed as RN341, 0.008 µM) was 99.6644% and the remaining nanoBRET tracer signal at 0.008 µM ([3]; JNK3, inhibitor 8 nM, two replicates, read-out: nanoBRET response normalized to 0% (no tracer) and 100% (no inhibitor) control) was 90%. For the same compound, the “nanoBRET response normalized to 0% (no tracer) and 100% (no inhibitor) control” value ([3]; JNK3, inhibitor 16 nM, two replicates, listed as RN341, 0.016 µM) was 91.5832%, the remaining nanoBRET tracer signal at 0.016 µM ([3]; JNK3, inhibitor 16 nM, two replicates, read-out: nanoBRET response normalized to 0% (no tracer) and 100% (no inhibitor) control) was 91.5% and the “nanoBRET response normalized to 0% (no tracer) and 100% (no inhibitor) control” value ([3]; JNK3, inhibitor 50 nM, two replicates, listed as RN341, 0.05 µM) was 98.9095%. The remaining nanoBRET tracer signal at 0.05 µM ([3]; JNK3, inhibitor 50 nM, two replicates, read-out: nanoBRET response normalized to 0% (no tracer) and 100% (no inhibitor) control) was 96.2%, the “nanoBRET response normalized to 0% (no tracer) and 100% (no inhibitor) control” value ([3]; JNK3, inhibitor 250 nM, two replicates, listed as RN341, […]) was 99.8628% and the remaining nanoBRET tracer signal at […] ([3]; JNK3, inhibitor 250 nM, two replicates, read-out: nanoBRET response normalized to 0% (no tracer) and 100% (no inhibitor) control) was 96.3%. For the same compound, the “nanoBRET response normalized to 0% (no tracer) and 100% (no inhibitor) control” value ([3]; JNK3, inhibitor 500 nM, two replicates, listed as RN341, 0.5 µM) was 92.6932%, the remaining nanoBRET tracer signal at 0.5 µM ([3]; JNK3, inhibitor 500 nM, two replicates, read-out: nanoBRET response normalized to 0% (no tracer) and 100% (no inhibitor) control) was 93.9% and the “nanoBRET response normalized to 0% (no tracer) and 100% (no inhibitor) control” value ([3]; JNK3, inhibitor 2500 nM, two replicates, listed as RN341, […]) was 84.3032%. The remaining nanoBRET tracer signal at […] ([3]; JNK3, inhibitor 2500 nM, two replicates, read-out: nanoBRET response normalized to 0% (no tracer) and 100% (no inhibitor) control) was 90.4%, the “nanoBRET response normalized to 0% (no tracer) and 100% (no inhibitor) control” value ([3]; JNK3, inhibitor 5000 nM, two replicates, listed as RN341, 5 µM) was 67.4443% and the remaining nanoBRET tracer signal at 5 µM ([3]; JNK3, inhibitor 5000 nM, two replicates, read-out: nanoBRET response normalized to 0% (no tracer) and 100% (no inhibitor) control) was 74.7%. For the same compound, the “nanoBRET response normalized to 0% (no tracer) and 100% (no inhibitor) control” value ([3]; JNK3, inhibitor 25000 nM, two replicates, listed as RN341, 25 µM) was 34.5338% and the remaining nanoBRET tracer signal at 25 µM ([3]; JNK3, inhibitor 25000 nM, two replicates, read-out: nanoBRET response normalized to 0% (no tracer) and 100% (no inhibitor) control) was 48.6%.
